The values that follow come from US8193189B2, “Quinoxaline derivatives as tyrosine kinase activity inhibitors” (Novartis AG, priority 2007, dated 2012).

The target in assay [1] is T1, GST-JAK3(811-1124) (Homo sapiens, UniProt P52333).
T1 construct: GST-JAK3(811-1124); made in house
Nature of the assay: EPK JAK-family kinases profiling assay (Caliper mobility shift), JAK3. It counts as biochemical. The conditions noted are these: ATP 80 μM, 6 nM kinase. In short, it runs like this: (§1)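 Turnover was read as substrate/product ratio after mobility-shift capillary-like separation of each reaction, run for 60 min at 30 °C with GST-tagged kinase domain, labelled peptide and ATP, and terminated with EDTA stop buffer.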

Assay [2] addresses T2, GST-JAK2(808-1132) (Homo sapiens, UniProt O60674).
T2 construct: GST-JAK2(808-1132); purchased Invitrogen (Carlsbad, USA) #4288
Put plainly: EPK JAK-family kinases profiling assay (Caliper mobility shift), JAK2. In kind it is biochemical. The conditions noted are these: ATP 20 μM, 1.8 nM kinase. The essentials: as §1

Assay [3] concerns JAK/STAT pathway (JAK1/JAK2-dependent nuclear translocation of STAT1-GFP). Nature of the assay: Inhibition of the JAK/STAT pathway: IFN-γ stimulated nuclear translocation of STAT1-GFP in HT1080 fibrosarcoma cells. It counts as cell-based. The conditions noted are these: Homo sapiens, HT-1080; HT1080 STAT1-GFP cells, 100 ng/ml IFN-γ 2 hours, compound added 30 min before; read-out: STAT1translo IC50. The essentials: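 Readout is the nuclear-minus-cytoplasmic GFP-STAT1 intensity, imaged at 10× using Hoechst-defined nuclear masks over at least 1000 cells/well. Stably transfected HT1080 fibrosarcoma cells were pretreated 30 min with compound (final 0.003–10 μM, 0.1% DMSO) before IFN-γ challenge.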

The target in assay [4] is T3, GST-JAK1(866-1154) (Homo sapiens, UniProt P23458).
T3 construct: GST-JAK1(866-1154); made in house
Put plainly: EPK JAK-family kinases profiling assay (Caliper mobility shift), JAK1. It counts as biochemical. The conditions noted are these: ATP 40 μM, 50 nM kinase. The essentials: as §1

Assay [5] has as its target T4, GST-TYK2(888-1187) (Homo sapiens, UniProt P29597).
T4 construct: GST-TYK2(888-1187); made in house
T4 sequence (P29597 888-1187): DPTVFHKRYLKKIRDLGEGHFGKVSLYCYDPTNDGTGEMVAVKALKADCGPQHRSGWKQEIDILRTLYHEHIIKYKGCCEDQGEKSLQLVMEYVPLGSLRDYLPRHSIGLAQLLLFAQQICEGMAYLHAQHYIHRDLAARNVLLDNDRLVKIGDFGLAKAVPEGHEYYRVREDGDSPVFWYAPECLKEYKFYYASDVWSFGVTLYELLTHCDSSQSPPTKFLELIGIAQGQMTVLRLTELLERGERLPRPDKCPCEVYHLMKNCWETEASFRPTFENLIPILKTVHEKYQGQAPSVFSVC
Put plainly: EPK JAK-family kinases profiling assay (Caliper mobility shift), TYK2. It counts as biochemical. The settings on record: ATP 30 μM, 40 nM kinase. The essentials: as §1

T1 sequence (P52333 811-1124): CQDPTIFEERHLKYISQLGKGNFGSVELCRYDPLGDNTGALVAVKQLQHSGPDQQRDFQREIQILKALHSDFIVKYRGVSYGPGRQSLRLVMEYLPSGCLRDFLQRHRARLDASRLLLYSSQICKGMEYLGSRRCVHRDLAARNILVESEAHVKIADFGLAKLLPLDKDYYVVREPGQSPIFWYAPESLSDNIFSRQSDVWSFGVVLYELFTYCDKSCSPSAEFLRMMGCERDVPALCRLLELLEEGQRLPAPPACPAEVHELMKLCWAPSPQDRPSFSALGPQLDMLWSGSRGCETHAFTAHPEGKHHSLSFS
T2 sequence (O60674 808-1132): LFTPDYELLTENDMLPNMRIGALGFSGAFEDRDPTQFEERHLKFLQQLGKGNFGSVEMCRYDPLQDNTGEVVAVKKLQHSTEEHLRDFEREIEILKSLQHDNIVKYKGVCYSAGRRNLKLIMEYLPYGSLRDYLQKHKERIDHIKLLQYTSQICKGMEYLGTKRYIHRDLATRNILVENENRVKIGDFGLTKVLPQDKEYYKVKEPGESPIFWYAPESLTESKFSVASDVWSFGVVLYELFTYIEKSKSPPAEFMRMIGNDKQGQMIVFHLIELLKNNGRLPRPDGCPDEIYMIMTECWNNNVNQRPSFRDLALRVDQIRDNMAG
T3 sequence (P23458 866-1154): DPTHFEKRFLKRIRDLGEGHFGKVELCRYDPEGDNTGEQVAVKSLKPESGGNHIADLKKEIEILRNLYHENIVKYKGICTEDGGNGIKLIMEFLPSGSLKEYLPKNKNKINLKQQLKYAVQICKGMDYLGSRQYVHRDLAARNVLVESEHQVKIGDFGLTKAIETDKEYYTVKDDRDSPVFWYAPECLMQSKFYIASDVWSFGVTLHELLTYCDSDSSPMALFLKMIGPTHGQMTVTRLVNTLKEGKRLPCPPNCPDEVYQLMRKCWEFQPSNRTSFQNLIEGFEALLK

Broadly, the IC50 is the midpoint of a concentration-inhibition curve. With `Cc1cc(-c2cnc3cccc(-c4cc(F)c(CN5CCS(=O)(=O)CC5)c(F)c4)c3n2)ccc1C(=O)N1CCN(C)CC1` [Example 44, (4-{8-[4-(1,1-Dioxido-thiomorpholin-4-ylmethyl)-3,5-difluoro-phenyl]-quinoxalin-2-yl}-2-methyl-phenyl)-(4-methyl-piperazin-1-yl)-methanone], the half-inhibitory concentration (IC50) in assay [1] was 405 nM; in assay [2], 6.55 nM; in assay [3], 49 nM; in assay [4], 150 nM; in assay [5], 240 nM.

With `COc1cc(-c2cnc3cccc(-c4cc(F)c(CN5CCS(=O)(=O)CC5)c(F)c4)c3n2)ccn1` [Example 106, 8-[4-(1,1-Dioxido-thiomorpholin-4-ylmethyl)-3,5-difluoro-phenyl]-2-(2-methoxy-pyridin-4-yl)-quinoxaline], the IC50 in assay [1] stood at 195 nM; in assay [2] it was 82 nM; in assay [3], 202 nM; in assay [4], 365 nM; in assay [5] it was 1970 nM.

`COc1cc(-c2cnc3cccc(-c4cc(F)c(CN5CCS(=O)(=O)CC5)c(F)c4)c3n2)ccc1OCCCN1CCOCC1` [Example 86, 8-[4-(1,1-Dioxido-thiomorpholin-4-ylmethyl)-3,5-difluoro-phenyl]-2-[3-methoxy-4-(3-morpholin-4-yl-propoxy)-phenyl]-quinoxaline]: the IC50 in assay [1] was 110 nM; in assay [2] it was less than 3 nM; in assay [3], 93 nM; in assay [4], 6.65 nM; in assay [5], 38 nM.

As to `O=C(c1c(F)cc(-c2cccc3ncc(-c4cnn(C5CCNCC5)c4)nc23)cc1F)N1CCOCC1` [Example 97, {2,6-Difluoro-4-[3-(1-piperidin-4-yl-1H-pyrazol-4-yl)-quinoxalin-5-yl]-phenyl}-morpholin-4-yl-methanone], the IC50 was 9150 nM in assay [1]; 19.5 nM in assay [2]; 495 nM in assay [3]; 720 nM in assay [4]; 510 nM in assay [5].

In the case of `CN(C)CCN(C)C(=O)c1ccc(-c2cnc3cccc(-c4cc(F)c(CN5CCS(=O)(=O)CC5)c(F)c4)c3n2)cn1` [Example 111, 5-{8-[4-(1,1-Dioxido-thiomorpholin-4-ylmethyl)-3,5-difluoro-phenyl]-quinoxalin-2-yl}-pyridine-2-carboxylic acid (2-dimethylamino-ethyl)-methyl-amide], the IC50 in assay [1] was 9300 nM; in assay [2] it was 105 nM; in assay [3], 1230 nM; in assay [4] it was 920 nM; in assay [5], 1700 nM.

As for `CS(=O)(=O)c1ccc(-c2cccc3ncc(-c4cnn(C5CCNCC5)c4)nc23)cc1F` [Example 99, 8-(3-Fluoro-4-methanesulfonyl-phenyl)-2-(1-piperidin-4-yl-1H-pyrazol-4-yl)-quinoxaline], the IC50 in assay [1] amounted to 4850 nM; in assay [2] it was 22 nM; in assay [3], 1360 nM; in assay [4], 870 nM; in assay [5], 805 nM.

Turning to `COCCOc1ccc(-c2cnc3cccc(-c4cc(F)c(CN5CCOCC5)c(F)c4)c3n2)cc1OC` [Example 50, 8-(3,5-Difluoro-4-morpholin-4-ylmethyl-phenyl)-2-[3-methoxy-4-(2-methoxy-ethoxy)-phenyl]-quinoxaline], the IC50 in assay [1] was more than 10000 nM; in assay [2] it was 7.05 nM; in assay [3], 1650 nM; in assay [4], 38 nM; in assay [5], 1600 nM.

With `CN1CCN(c2ccc(-c3cnc4cccc(-c5ccc(CC(=O)N6CCOCC6)c(F)c5)c4n3)cc2)CC1` [Example 88, 2-(2-Fluoro-4-{3-[4-(4-methyl-piperazin-1-yl)-phenyl]-quinoxalin-5-yl}-phenyl)-1-morpholin-4-yl-ethanone], the IC50 was found to be 840 nM in assay [1]; 6.55 nM in assay [2]; 700 nM in assay [3]; 27 nM in assay [4]; 113 nM in assay [5].

Regarding `COc1cc(-c2cnc3cccc(-c4ccc(CC(=O)N5CCOCC5)cc4)c3n2)ccc1OCCCN1CCOCC1` [Example 83, 2-(4-{3-[3-Methoxy-4-(3-morpholin-4-yl-propoxy)-phenyl]-quinoxalin-5-yl}-phenyl)-1-morpholin-4-yl-ethanone], the concentration for half-maximal inhibition (IC50) in assay [1] worked out at 890 nM; in assay [2] it was 6.25 nM; in assay [3], 2080 nM; in assay [4] it was 33.5 nM; in assay [5] it was 270 nM.

As for `COCCOc1ccc(-c2cnc3cccc(-c4cc(F)c(CN5CCS(=O)(=O)CC5)c(F)c4)c3n2)cc1OC` [Example 53, 8-[4-(1,1-Dioxido-thiomorpholin-4-ylmethyl)-3,5-difluoro-phenyl]-2-[3-methoxy-4-(2-methoxy-ethoxy)-phenyl]-quinoxaline], the IC50 in assay [1] is 215 nM; in assay [2] it was less than 3 nM; in assay [3], 150 nM; in assay [4], 12 nM; in assay [5] it was 93.5 nM.

As to `Cc1cc(-c2cnc3cccc(-c4cc(F)c(CN5CCOCC5)c(F)c4)c3n2)cnc1C(=O)N(C)CCN(C)C` [Example 112, 5-[8-(3,5-Difluoro-4-morpholin-4-ylmethyl-phenyl)-quinoxalin-2-yl]-3-methyl-pyridine-2-carboxylic acid (2-dimethylamino-ethyl)-methyl-amide], the IC50 in assay [1] is more than 10000 nM; in assay [2], 320 nM; in assay [3] it was 13600 nM; in assay [4], 5350 nM; in assay [5] it was more than 10000 nM.

Turning to `Cc1cc(-c2cnc3cccc(-c4cc(F)c(CN5CCS(=O)(=O)CC5)c(F)c4)c3n2)cnc1C(=O)N(C)CCN(C)C` [Example 113, 5-{8-[4-(1,1-Dioxido-thiomorpholin-4-ylmethyl)-3,5-difluoro-phenyl]-quinoxalin-2-yl}-3-methyl-pyridine-2-carboxylic acid (2-dimethylamino-ethyl)-methyl-amide], the IC50 in assay [1] stood at 3300 nM; in assay [2], 28.5 nM; in assay [3] it was 1940 nM; in assay [4], 615 nM; in assay [5] it was 1150 nM.

In the case of `CCN1CCN(Cc2ccc(-c3cnc4cccc(-c5ccc(CN6CCOCC6)c(F)c5)c4n3)cc2C)CC1` [Example 93, 2-[4-(4-Ethyl-piperazin-1-ylmethyl)-3-methyl-phenyl]-8-(3-fluoro-4-morpholin-4-ylmethyl-phenyl)-quinoxaline], the IC50 was 1250 nM in assay [1]; 22 nM in assay [2]; 3010 nM in assay [3]; 185 nM in assay [4]; 670 nM in assay [5].

For the compound `Cc1cc(-c2cccc3ncc(-c4cnn(CCCN5CCOCC5)c4)nc23)ccc1C(=O)N1CCOCC1` [Example 114, (2-Methyl-4-{3-[1-(3-morpholin-4-yl-propyl)-1H-pyrazol-4-yl]-quinoxalin-5-yl}-phenyl)-morpholin-4-yl-methanone], the IC50 in assay [1] is 1650 nM; in assay [2], 11.5 nM; in assay [3] it was 6380 nM; in assay [4], 250 nM; in assay [5], 345 nM.

Regarding `COCCOc1ccc(-c2cnc3cccc(-c4ccc(CN5CCOCC5)c(F)c4)c3n2)cc1OC` [Example 51, 8-(3-Fluoro-4-morpholin-4-ylmethyl-phenyl)-2-[3-methoxy-4-(2-methoxy-ethoxy)-phenyl]-quinoxaline], the 50% inhibitory concentration (IC50) in assay [1] was more than 10000 nM; in assay [2] it was 31.5 nM; in assay [3], 2040 nM; in assay [4], 120 nM; in assay [5] it was more than 10000 nM.
